Assay results from patent US7902226B2, “Dehalogeno-compounds” (Daiichi Pharmaceutical Co., Ltd., priority 2000, dated 2011).
Values after ≈ are worked out from the molar mass of the structure shown.

Key:
E. coli, NIHJ = assay: Antibacterial activity (MIC), standard method of the Japan Society of Chemotherapy; format: cell-based; details: Escherichia coli
Method: (§1) Antibacterial activities of the compounds of this invention were measured in accordance to the standard method designated by the Japan Society of Chemotherapy, with the results shown as MIC values (microgram/ml) units in the following table. For comparison with the MIC values of the compounds of this invention, MIC values of levofloxacin (LVFX), ciprofloxacin (CPFX) and 7-[3-(R)-(1-aminocyclopropyl)pyrrolidin-1-yl]-6-fluoro-1-[2-(S)-fluoro-1-(R)-cyclopropyl]-8-methyl-1,4-dihydro-4-oxoquinoline-3-carboxylic acid (Reference drug 1), which is described in PCT/JP96/00208, are also shown in the table.

K. pneumoniae, Type 1 = assay: as above; format: cell-based; details: Klebsiella pneumoniae, TYPE1
Method: as §1

Pr. vulgalis, 08601 = assay: as above; format: cell-based
Method: as §1

Ps. aeruginosa, 32104 = assay: as above; format: cell-based; details: Pseudomonas aeruginosa
Method: as §1

Ps. aeruginosa, 32121 = assay: as above; format: cell-based; details: Pseudomonas aeruginosa
Method: as §1

[1] = test system: Ps. maltophilia, IID-1275; assay: as above; format: cell-based; details: Stenotrophomonas maltophilia, IID1275
Method: as §1

S. aureus, 209P = assay: as above; format: cell-based; details: Staphylococcus aureus
Method: as §1

S. aureus, 870307 = assay: as above; format: cell-based; details: Staphylococcus aureus
Method: as §1

S. epidermidis, 56500 = assay: as above; format: cell-based; details: Staphylococcus epidermidis
Method: as §1

S. flexneri, 2A 5503 = assay: as above; format: cell-based; details: Shigella flexneri, 2A5503
Method: as §1

Ser. marcescens, 10100 = assay: as above; format: cell-based; details: Serratia marcescens
Method: as §1

[2] = test system: Str. faecalis, ATCC 19433; assay: as above; format: cell-based; details: Enterococcus faecalis, ATCC19433
Method: as §1

Str. pneumoniae J24 = assay: as above; format: cell-based; details: Streptococcus pneumoniae
Method: as §1

Str. pyogenes, G-36 = assay: as above; format: cell-based; details: Streptococcus pyogenes, G36
Method: as §1

## CNC1([C@@H]2CCN(c3ccc4c(=O)c(C(=O)O)cn(C5CC5)c4c3C)C2)CC1 [Example 15, 1-(cyclopropyl)-8-methyl-7-[3-(R)-[1-(methylamino)cyclopropyl]pyrrolidin-1-yl]-1,4-dihydro-4-oxoquinoline-3-carboxylic acid]
E. coli, NIHJ
  MIC: ≤ 0.003 µg/mL
K. pneumoniae, Type 1
  MIC: 0.025 µg/mL (≈ 0.0655 µM)
Pr. vulgalis, 08601
  MIC: 0.012 µg/mL (≈ 0.0315 µM)
Ps. aeruginosa, 32104
  MIC: 0.1 µg/mL (≈ 0.262 µM)
Ps. aeruginosa, 32121
  MIC: 0.05 µg/mL (≈ 0.131 µM)
[1]
  MIC: 0.2 µg/mL (≈ 0.524 µM)
S. aureus, 209P
  MIC: ≤ 0.003 µg/mL
S. aureus, 870307
  MIC: 0.025 µg/mL (≈ 0.0655 µM)
S. epidermidis, 56500
  MIC: 0.006 µg/mL (≈ 0.0157 µM)
S. flexneri, 2A 5503
  MIC: 0.006 µg/mL (≈ 0.0157 µM)
Ser. marcescens, 10100
  MIC: 0.1 µg/mL (≈ 0.262 µM)
[2]
  MIC: 0.025 µg/mL (≈ 0.0655 µM)
Str. pneumoniae J24
  MIC: ≤ 0.003 µg/mL
Str. pyogenes, G-36
  MIC: ≤ 0.003 µg/mL
other
  melting point: 190 to 192 °C

## Cc1c(N2CC[C@@H](C3(N)CC3)C2)ccc2c(=O)c(C(=O)O)cn(C3CC3)c12 [Example 3, 7-[3-(R)-(1-aminocyclopropyl)pyrrolidin-1-yl]-1-cyclopropyl-1,4-dihydro-8-methyl-4-oxoquinoline-3-carboxylic acid]
E. coli, NIHJ
  MIC: ≤ 0.003 µg/mL
K. pneumoniae, Type 1
  MIC: 0.012 µg/mL (≈ 0.0327 µM)
Pr. vulgalis, 08601
  MIC: ≤ 0.003 µg/mL
Ps. aeruginosa, 32104
  MIC: 0.05 µg/mL (≈ 0.136 µM)
Ps. aeruginosa, 32121
  MIC: 0.025 µg/mL (≈ 0.068 µM)
[1]
  MIC: 0.05 µg/mL (≈ 0.136 µM)
S. aureus, 209P
  MIC: ≤ 0.003 µg/mL
S. aureus, 870307
  MIC: 0.025 µg/mL (≈ 0.068 µM)
S. epidermidis, 56500
  MIC: 0.003 µg/mL (≈ 0.00816 µM)
S. flexneri, 2A 5503
  MIC: ≤ 0.003 µg/mL
Ser. marcescens, 10100
  MIC: 0.025 µg/mL (≈ 0.068 µM)
[2]
  MIC: 0.012 µg/mL (≈ 0.0327 µM)
Str. pneumoniae J24
  MIC: ≤ 0.003 µg/mL
Str. pyogenes, G-36
  MIC: 0.003 µg/mL (≈ 0.00816 µM)
other
  melting point: 230 to 233 °C
